Literature values in US10071054B2, “Econazole composition and methods of treatment therewith” (Exeltis USA Dermatology, Inc., priority 2010, dated 2018).

What was measured:
[1] = Liao et al., Yao Xue Xue Bao 28 (1):22-7 (1993)
[2] = tested on: dermatophytes and yeasts; conditions: most strains of Epidermophyton floccosum, Microsporum audouinii, M. canis, M. gypseum, Trichophyton mentagrophytes, T. rubrum, T. tonsurans, Candida albicans, Malassezia furfur

## Clc1ccc(CO[C@@H](Cn2ccnc2)c2ccc(Cl)cc2Cl)cc1 [(R)-(−)-econazole]
[1]
  antifungal activity of stereoisomer: greater antifungal activity

## Clc1ccc(COC(Cn2ccnc2)c2ccc(Cl)cc2Cl)cc1 (centres unmarked) [Econazole nitrate]
[2]
  activity against dermatophytes and yeasts: shown activity
